Results from paper PMC7462494, “Novel Bi-heterocycles as Potent Inhibitors of Urease and Less Cytotoxic Agents: 3-({5-((2-Amino-1,3-thiazol-4-yl)methyl)-1,3,4-oxadiazol-2-yl}sulfanyl)-N-(un/substituted-phenyl)propanamides” (Iranian Journal of Pharmaceutical Research : IJPR, 2020).
Like-named read-outs stand apart in the source and are kept apart here.

Assays:
urease = urease (Canavalia ensiformis, UniProt P07374); assay: Urease inhibition assay (customized Berthelot assay); type: biochemical; conditions: for inhibition at 500 µM: read-out: Urease Inhibition, Inhibition (%)
Method: This enzyme assay is the customized form of the commonly known Berthelot assay ([23], [24]). […] The contents were pre-incubated at 37 °C for 5 min. 40 µL of urea stock solution (20 mM) was added to each well with incubation for 10 min at 37 °C. It is followed by the addition of 115 µL phenol hypochlorite reagents (freshly prepared by mixing 45 µL phenol with 70 µL of alkali) per well. For color development, incubation was carried out for further 10 min at 37 °C. The absorbance was measured at 625 nm. The percentage enzyme inhibition and IC50 values were calculated using the following formula:
inhibition%=Control-test/Control×100
Where, Control is the total enzyme activity without inhibitor and Test is the activity in the presence of test compound. IC50 values were calculated using the EZ–Fit Enzyme kinetics software (Perrella Scientific Inc. Amherst, US).
Statistical analysis was performed by Microsoft Excel 2010 for all the thrice measured values and the results are presented as mean ± SEM.

[1] = Hemolytic activity (cytotoxicity through hemolysis); type: cell-based; conditions: bovine, red blood cell (erythrocyte) suspension, pH 7.4, 20 µL compound solution (10 mg/mL) in 180 µL RBCs suspension, room temperature, PBS negative control, Triton positive control
Text: The erythrocytes separated diluted in phosphate buffer saline of pH 7.4 and a suspension was made.

urease, sequence (P07374 whole entry, looked up): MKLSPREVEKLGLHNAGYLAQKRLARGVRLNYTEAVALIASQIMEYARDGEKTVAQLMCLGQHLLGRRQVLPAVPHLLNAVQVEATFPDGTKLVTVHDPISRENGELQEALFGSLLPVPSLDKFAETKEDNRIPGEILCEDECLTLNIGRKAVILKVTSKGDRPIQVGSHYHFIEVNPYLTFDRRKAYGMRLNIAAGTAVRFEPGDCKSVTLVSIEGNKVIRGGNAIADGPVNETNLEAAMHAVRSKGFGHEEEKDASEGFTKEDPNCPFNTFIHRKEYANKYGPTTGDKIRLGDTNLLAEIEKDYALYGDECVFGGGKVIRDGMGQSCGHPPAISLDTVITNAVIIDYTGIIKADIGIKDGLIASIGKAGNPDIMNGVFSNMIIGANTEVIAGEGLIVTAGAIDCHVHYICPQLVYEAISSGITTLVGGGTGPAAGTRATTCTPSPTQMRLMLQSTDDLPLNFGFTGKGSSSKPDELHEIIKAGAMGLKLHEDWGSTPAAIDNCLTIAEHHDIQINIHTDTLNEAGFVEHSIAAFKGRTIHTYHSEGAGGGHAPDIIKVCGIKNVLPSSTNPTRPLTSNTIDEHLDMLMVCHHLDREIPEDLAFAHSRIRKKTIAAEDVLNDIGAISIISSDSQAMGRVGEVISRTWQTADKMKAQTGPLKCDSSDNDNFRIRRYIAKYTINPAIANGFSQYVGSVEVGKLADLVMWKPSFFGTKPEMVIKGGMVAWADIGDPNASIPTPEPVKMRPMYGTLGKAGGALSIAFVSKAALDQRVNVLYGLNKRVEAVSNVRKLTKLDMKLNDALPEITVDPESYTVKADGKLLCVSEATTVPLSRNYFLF

## NC(N)=S [Thiourea, reference compound]
urease; at 0.5 mM, mean ± SEM, n = 3
  Urease Inhibition, Inhibition (%): Thiourea 98.12 ± 0.18%
urease; mean ± SEM, n = 3, EZ-Fit Enzyme kinetics software, read-out: Urease Inhibition, IC50
  IC50: 21.1 µM

## CCc1ccccc1NC(=O)CCSc1nnc(Cc2csc(N)n2)o1 [Compound 7j, 3-({5-[(2-Amino-1,3-thiazol-4-yl)methyl]-1,3,4-oxadiazol-2-yl}sulfanyl)-N-(2-ethylphenyl)propanamide]
[1]
  hemolysis at 30 min, 1 mg/mL: 6.63%
other
  melting point: 198 to 199 °C
urease
  IC50: 2.13 ± 0.01 µM
  inhibition at 500 µM: 98.12 ± 0.03%

## Cc1ccc(NC(=O)CCSc2nnc(Cc3csc(N)n3)o2)c(C)c1 [Compound 7e, 3-({5-[(2-Amino-1,3-thiazol-4-yl)methyl]-1,3,4-oxadiazol-2-yl}sulfanyl)-N-(2,4-dimethylphenyl)propanamide]
[1]
  hemolysis at 30 min, 1 mg/mL: 6.74%
urease
  IC50: 1.24 ± 0.01 µM
  inhibition at 500 µM: 98.19 ± 0.09%

## Cc1cccc(NC(=O)CCSc2nnc(Cc3csc(N)n3)o2)c1 [Compound 7c, 3-({5-[(2-Amino-1,3-thiazol-4-yl)methyl]-1,3,4-oxadiazol-2-yl}sulfanyl)-N-(3-methylphenyl)propanamide]
[1]
  hemolysis at 30 min, 1 mg/mL: 5.16%
urease
  IC50: 1.32 ± 0.02 µM
  inhibition at 500 µM: 98.52 ± 0.05%

## Cc1ccc(NC(=O)CCSc2nnc(Cc3csc(N)n3)o2)cc1 [Compound 7d, 3-({5-[(2-Amino-1,3-thiazol-4-yl)methyl]-1,3,4-oxadiazol-2-yl}sulfanyl)-N-(4-methylphenyl)propanamide]
[1]
  hemolysis at 30 min, 1 mg/mL: 7.16%
urease
  IC50: 1.75 ± 0.01 µM
  inhibition at 500 µM: 98.13 ± 0.02%

## Cc1ccc(C)c(NC(=O)CCSc2nnc(Cc3csc(N)n3)o2)c1 [Compound 7f, 3-({5-[(2-Amino-1,3-thiazol-4-yl)methyl]-1,3,4-oxadiazol-2-yl}sulfanyl)-N-(2,5-dimethylphenyl)propanamide]
[1]
  hemolysis at 30 min, 1 mg/mL: 6.42%
urease
  IC50: 5.18 ± 0.06 µM
  inhibition at 500 µM: 96.26 ± 0.03%

## Cc1ccccc1NC(=O)CCSc1nnc(Cc2csc(N)n2)o1 [Compound 7b, 3-({5-[(2-Amino-1,3-thiazol-4-yl)methyl)-1,3,4-oxadiazol-2-yl}sulfanyl)-N-(2-methylphenyl)propanamide]
[1]
  hemolysis at 30 min, 1 mg/mL: 7.05%
urease
  IC50: 2.64 ± 0.03 µM
  inhibition at 500 µM: 96.42 ± 0.02%

## Cc1ccc(NC(=O)CCSc2nnc(Cc3csc(N)n3)o2)cc1C [Compound 7h, 3-({5-[(2-Amino-1,3-thiazol-4-yl)methyl]-1,3,4-oxadiazol-2-yl}sulfanyl)-N-(3,4-dimethylphenyl)propanamide]
[1]
  hemolysis at 30 min, 1 mg/mL: 5.79%
other
  melting point: 177 to 178 °C
urease
  IC50: 2.56 ± 0.02 µM
  inhibition at 500 µM: 97.28 ± 0.02%

## Cc1cc(C)cc(NC(=O)CCSc2nnc(Cc3csc(N)n3)o2)c1 [Compound 7i, 3-({5-[(2-Amino-1,3-thiazol-4-yl)methyl]-1,3,4-oxadiazol-2-yl}sulfanyl)-N-(3,5-dimethylphenyl)propanamide]
[1]
  hemolysis at 30 min, 1 mg/mL: 5.26%
urease
  IC50: 3.62 ± 0.01 µM
  inhibition at 500 µM: 97.31 ± 0.08%

## CC(C)(C)CC(C)(C)c1ccc(OCCO)cc1 [Triton-X, reference compound]
[1]
  hemolysis at 30 min, 1 mg/mL: 89%

## CCc1ccc(NC(=O)CCSc2nnc(Cc3csc(N)n3)o2)cc1 [Compound 7k, 3-({5-[(2-amino-1,3-thiazol-4-yl)methyl]-1,3,4-oxadiazol-2-yl}sulfanyl)-N-(4-ethylphenyl)propanamide]
[1]
  hemolysis at 30 min, 1 mg/mL: 7.16%
urease
  IC50: 2.85 ± 0.05 µM
  inhibition at 500 µM: 97.43 ± 0.07%

## Nc1nc(Cc2nnc(SCCC(=O)Nc3ccccc3)o2)cs1 [Compound 7a, 3-({5-[(2-Amino-1,3-thiazol-4-yl)methyl]-1,3,4-oxadiazol-2-yl}sulfanyl)-N-phenylpropanamide]
[1]
  hemolysis at 30 min, 1 mg/mL: 11.5%
other
  melting point: 190 to 191 °C
urease
  IC50: 2.45 ± 0.04 µM
  inhibition at 500 µM: 98.24 ± 0.08%

## Cc1cccc(C)c1NC(=O)CCSc1nnc(Cc2csc(N)n2)o1 [Compound 7g, 3-({5-[(2-Amino-1,3-thiazol-4-yl)methyl]-1,3,4-oxadiazol-2-yl}sulfanyl)-N-(2,6-dimethylphenyl)propanamide]
[1]
  hemolysis at 30 min, 1 mg/mL: 7.37%
other
  melting point: 149 to 150 °C
urease
  IC50: 2.63 ± 0.03 µM
  inhibition at 500 µM: 98.52 ± 0.06%

## CCOc1ccc(NC(=O)CCSc2nnc(Cc3csc(N)n3)o2)cc1 [Compound 7l, 3-({5-[(2-Amino-1,3-thiazol-4-yl)methyl]-1,3,4-oxadiazol-2-yl}sulfanyl)-N-(4-ethoxyphenyl)propanamide]
[1]
  hemolysis at 30 min, 1 mg/mL: 8.11%
urease
  IC50: 2.17 ± 0.02 µM
  inhibition at 500 µM: 97.25 ± 0.04%
